Experimental data taken from ChEMBL document CHEMBL2203208, “Synthesis and structure-activity relationships of dual PI3K/mTOR inhibitors based on a 4-amino-6-methyl-1,3,5-triazine sulfonamide scaffold” (Bioorg Med Chem Lett, 2012).
≈ marks a conversion by molar mass, not a printed value.

Columns and labels:
physchem [1] = details: simulated intestinal fluid
Description: Equilibrium solubility of the compound in simulated intestinal fluid after 48 to 72 hrs

[2] = target: Phosphatidylinositol 4,5-bisphosphate 3-kinase catalytic subunit alpha isoform (Homo sapiens, UniProt P42336)
Description: Inhibition of human N-terminal polyHis-tagged PI3K p110alpha expressed in baculovirus infected Hi5 cells using Phosphatidylinositol-4,5-bisphosphate as substrate after 20 mins by AlphaScreen assay

physchem [3] = details: phosphate buffered saline
Description: Equilibrium solubility of the compound in phosphate buffered saline after 48 to 72 hrs

physchem [4] = details: 0.01N HCl
Description: Equilibrium solubility of the compound in 0.01N HCl after 48 to 72 hrs

in vivo [5] = details: Sprague-Dawley, rat, iv, 1 mg/kg
Mus musculus [6] = species on record: Mus musculus; details: CD1, U-87MG ATCC
Description: Inhibition of PI3K-mediated AKT Ser473 phosphorylation in human U87MG cells xenografted in po dosed CD1 nu/nu mouse after 6 hrs

[7] = Plasma protein binding in rat; type: ADME, cell-free; details: read-out: PPB (converted)
in vitro [8] = details: rat, liver microsomes
Description: Clearance in rat liver microsomes at 1 uM after 30 mins in presence of NADPH

in vivo [9] = details: Sprague-Dawley, rat, po, 2 mg/kg
[10] = target: Phosphatidylinositol 4,5-bisphosphate 3-kinase catalytic subunit beta isoform (Homo sapiens, UniProt P42338)
Description: Inhibition of human N-terminal polyHis-tagged PI3K p110beta expressed in baculovirus infected Hi5 cells using Phosphatidylinositol-4,5-bisphosphate as substrate after 20 mins by AlphaScreen assay

in vivo [11] = details: Sprague-Dawley, rat, iv, 1 mg/kg; remark: listed apart in the source
Description: (§1) Mean residence time in Sprague-Dawley rat at 1 mg/kg, iv

[12] = Plasma protein binding in human; type: ADME, cell-free; details: read-out: PPB (converted)
[13] = Plasma protein binding in dog; type: ADME, cell-free, Canis lupus familiaris; details: read-out: PPB (converted)
in vitro [14] = details: human, liver microsomes
Description: Clearance in human liver microsomes at 1 uM after 30 mins in presence of NADPH

[15] = target: T1, Phosphatidylinositol 4,5-bisphosphate 3-kinase catalytic subunit delta isoform (Homo sapiens, UniProt O00329)
T1 sequence (O00329 whole entry): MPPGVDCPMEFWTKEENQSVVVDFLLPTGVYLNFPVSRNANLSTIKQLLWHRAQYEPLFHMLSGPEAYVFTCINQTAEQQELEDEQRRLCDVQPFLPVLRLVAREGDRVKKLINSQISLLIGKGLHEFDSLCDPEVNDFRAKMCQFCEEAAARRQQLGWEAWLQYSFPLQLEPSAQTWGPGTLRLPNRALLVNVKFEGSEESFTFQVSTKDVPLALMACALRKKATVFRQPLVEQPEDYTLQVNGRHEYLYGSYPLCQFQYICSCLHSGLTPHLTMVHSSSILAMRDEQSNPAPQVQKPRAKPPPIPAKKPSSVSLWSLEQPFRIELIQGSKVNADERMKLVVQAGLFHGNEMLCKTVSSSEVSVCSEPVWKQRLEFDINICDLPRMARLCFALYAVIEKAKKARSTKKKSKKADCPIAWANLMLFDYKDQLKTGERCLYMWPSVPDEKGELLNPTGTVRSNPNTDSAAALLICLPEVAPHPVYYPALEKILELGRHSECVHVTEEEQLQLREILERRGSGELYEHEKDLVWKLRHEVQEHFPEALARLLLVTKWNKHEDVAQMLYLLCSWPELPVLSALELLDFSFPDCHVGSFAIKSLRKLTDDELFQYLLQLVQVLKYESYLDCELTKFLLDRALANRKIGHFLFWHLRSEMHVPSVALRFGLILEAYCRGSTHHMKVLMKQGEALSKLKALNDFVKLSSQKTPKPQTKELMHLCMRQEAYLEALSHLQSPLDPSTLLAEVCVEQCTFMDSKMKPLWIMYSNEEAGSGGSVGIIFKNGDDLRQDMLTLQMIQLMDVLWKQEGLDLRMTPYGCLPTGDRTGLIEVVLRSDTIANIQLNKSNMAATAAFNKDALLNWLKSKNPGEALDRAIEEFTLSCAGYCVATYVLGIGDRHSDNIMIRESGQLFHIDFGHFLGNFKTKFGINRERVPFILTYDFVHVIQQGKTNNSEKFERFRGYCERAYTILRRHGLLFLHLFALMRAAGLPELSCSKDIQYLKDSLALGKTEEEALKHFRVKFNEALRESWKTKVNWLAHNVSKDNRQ
Description: Inhibition of human N-terminal polyHis-tagged PI3K p110delta expressed in baculovirus infected Hi5 cells using Phosphatidylinositol-4,5-bisphosphate as substrate after 20 mins by AlphaScreen assay

[16] = target: Phosphatidylinositol 3-kinase catalytic subunit type 3 (Homo sapiens, UniProt Q8NEB9); assay: Inhibition of human VPS34 using phosphatidylinositol/phosphatidylserine as substrate after 30 mins by fluorescence-based immunoassay
[17] = target: Phosphatidylinositol 4,5-bisphosphate 3-kinase catalytic subunit gamma isoform (Homo sapiens, UniProt P48736); design: species or system BTI-TN-5B1-4
[18] = target: Voltage-gated inwardly rectifying potassium channel KCNH2 (Homo sapiens, UniProt Q12809); assay: Inhibition of human ERG
human MDR1 = assay: Permeability across pig LLC-PK1 cells expressing human MDR1; type: ADME, cell-based, Sus scrofa; details: read-out: permeability
in vivo [19] = details: Sprague-Dawley, rat, plasma, po, 2 mg/kg
in vivo [20] = details: Sprague-Dawley, rat, iv, 1 mg/kg; remark: listed apart in the source
Description: (§2) Clearance in Sprague-Dawley rat at 1 mg/kg, iv

rodent MDR1 = assay: Permeability across pig LLC-PK1 cells expressing rodent MDR1; type: ADME, cell-based, Sus scrofa; details: read-out: permeability
Mus musculus [21] = assay: Inhibition of PI3K in human U87MG cells xenografted in po dosed CD1 nu/nu mouse assessed as plasma concentration required for inhibition of AKT ser473 phosphorylation after 6 hrs; type: functional, organism-based, U-87MG ATCC; details: CD1, U-87 MG
[22] = Plasma protein binding in mouse; type: ADME, cell-free; details: read-out: PPB (converted)
[23] = target: Serine/threonine-protein kinase mTOR (Homo sapiens, UniProt P42345)
Description: Inhibition of recombinant N-terminal GST-tagged mTOR using GFP-4EBP as substrate after 90 mins by TR-FRET assay

Rattus norvegicus [24] = species on record: Rattus norvegicus; details: in vivo, iv, 1 mg/kg
Description: as §1

Rattus norvegicus [25] = species on record: Rattus norvegicus; details: in vivo, iv, 1 mg/kg; remark: listed apart in the source
Rattus norvegicus [26] = species on record: Rattus norvegicus; details: in vivo, iv, 1 mg/kg; remark: listed apart in the source
Description: as §2

Rattus norvegicus [27] = species on record: Rattus norvegicus; details: in vivo, po, 2 mg/kg
Rattus norvegicus [28] = species on record: Rattus norvegicus; details: in vivo, po, 2 mg/kg; remark: listed apart in the source

Sequence of Phosphatidylinositol 4,5-bisphosphate 3-kinase catalytic subunit gamma isoform (P48736 whole entry, canonical isoform): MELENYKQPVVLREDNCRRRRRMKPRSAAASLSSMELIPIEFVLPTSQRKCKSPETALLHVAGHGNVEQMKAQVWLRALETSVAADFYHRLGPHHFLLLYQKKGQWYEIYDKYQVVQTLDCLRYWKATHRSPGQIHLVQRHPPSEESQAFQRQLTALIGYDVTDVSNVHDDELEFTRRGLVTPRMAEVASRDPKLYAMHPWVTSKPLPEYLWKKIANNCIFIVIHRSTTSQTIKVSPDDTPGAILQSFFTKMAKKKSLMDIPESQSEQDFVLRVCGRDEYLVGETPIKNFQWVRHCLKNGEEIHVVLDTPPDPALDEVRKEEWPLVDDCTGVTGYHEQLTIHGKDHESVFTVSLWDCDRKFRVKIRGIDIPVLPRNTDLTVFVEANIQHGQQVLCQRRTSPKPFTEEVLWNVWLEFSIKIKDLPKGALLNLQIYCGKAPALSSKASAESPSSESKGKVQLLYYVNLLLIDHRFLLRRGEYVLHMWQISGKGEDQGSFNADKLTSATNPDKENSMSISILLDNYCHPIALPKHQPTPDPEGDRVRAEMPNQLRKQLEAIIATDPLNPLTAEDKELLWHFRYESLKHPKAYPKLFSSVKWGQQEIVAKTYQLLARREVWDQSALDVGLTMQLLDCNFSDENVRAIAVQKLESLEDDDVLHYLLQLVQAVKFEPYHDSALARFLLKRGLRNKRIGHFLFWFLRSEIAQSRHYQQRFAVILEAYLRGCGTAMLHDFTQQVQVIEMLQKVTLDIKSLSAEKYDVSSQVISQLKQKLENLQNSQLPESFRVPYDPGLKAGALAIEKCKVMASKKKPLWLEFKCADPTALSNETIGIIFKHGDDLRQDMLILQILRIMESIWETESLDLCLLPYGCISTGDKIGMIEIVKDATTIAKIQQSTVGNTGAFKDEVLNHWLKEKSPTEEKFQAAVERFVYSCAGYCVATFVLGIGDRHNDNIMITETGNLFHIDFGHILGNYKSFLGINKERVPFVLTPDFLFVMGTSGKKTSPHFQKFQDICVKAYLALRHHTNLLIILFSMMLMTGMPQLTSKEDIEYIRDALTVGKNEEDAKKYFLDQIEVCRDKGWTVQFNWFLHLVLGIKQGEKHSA
Sequence of Phosphatidylinositol 4,5-bisphosphate 3-kinase catalytic subunit beta isoform (P42338 whole entry, canonical isoform): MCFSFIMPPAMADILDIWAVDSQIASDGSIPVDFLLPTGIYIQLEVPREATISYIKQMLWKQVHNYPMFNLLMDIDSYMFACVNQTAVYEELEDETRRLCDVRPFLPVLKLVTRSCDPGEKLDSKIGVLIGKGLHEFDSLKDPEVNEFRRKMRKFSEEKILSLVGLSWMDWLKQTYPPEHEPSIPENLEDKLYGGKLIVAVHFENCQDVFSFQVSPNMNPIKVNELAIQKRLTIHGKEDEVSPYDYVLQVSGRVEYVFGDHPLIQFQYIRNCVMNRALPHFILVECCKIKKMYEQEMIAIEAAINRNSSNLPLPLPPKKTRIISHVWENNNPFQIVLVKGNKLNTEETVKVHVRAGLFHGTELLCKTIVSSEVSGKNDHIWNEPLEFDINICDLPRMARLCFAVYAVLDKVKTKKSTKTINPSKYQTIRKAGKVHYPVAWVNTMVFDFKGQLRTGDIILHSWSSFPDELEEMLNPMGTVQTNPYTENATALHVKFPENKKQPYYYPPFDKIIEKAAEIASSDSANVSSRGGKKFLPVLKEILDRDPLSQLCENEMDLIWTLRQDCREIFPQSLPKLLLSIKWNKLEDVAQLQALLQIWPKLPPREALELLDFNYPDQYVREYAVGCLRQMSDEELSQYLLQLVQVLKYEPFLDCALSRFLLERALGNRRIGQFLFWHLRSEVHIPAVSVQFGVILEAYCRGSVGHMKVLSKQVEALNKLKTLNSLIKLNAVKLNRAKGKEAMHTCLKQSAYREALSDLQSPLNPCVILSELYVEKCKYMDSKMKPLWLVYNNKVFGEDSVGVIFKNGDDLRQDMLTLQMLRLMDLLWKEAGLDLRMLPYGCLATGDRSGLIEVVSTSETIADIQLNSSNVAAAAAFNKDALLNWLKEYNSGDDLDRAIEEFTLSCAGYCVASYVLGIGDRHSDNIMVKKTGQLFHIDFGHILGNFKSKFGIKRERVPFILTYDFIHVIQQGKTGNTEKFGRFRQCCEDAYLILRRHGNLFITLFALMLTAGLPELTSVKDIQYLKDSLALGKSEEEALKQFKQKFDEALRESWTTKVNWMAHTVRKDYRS
Sequence of Phosphatidylinositol 4,5-bisphosphate 3-kinase catalytic subunit alpha isoform (P42336 whole entry, canonical isoform): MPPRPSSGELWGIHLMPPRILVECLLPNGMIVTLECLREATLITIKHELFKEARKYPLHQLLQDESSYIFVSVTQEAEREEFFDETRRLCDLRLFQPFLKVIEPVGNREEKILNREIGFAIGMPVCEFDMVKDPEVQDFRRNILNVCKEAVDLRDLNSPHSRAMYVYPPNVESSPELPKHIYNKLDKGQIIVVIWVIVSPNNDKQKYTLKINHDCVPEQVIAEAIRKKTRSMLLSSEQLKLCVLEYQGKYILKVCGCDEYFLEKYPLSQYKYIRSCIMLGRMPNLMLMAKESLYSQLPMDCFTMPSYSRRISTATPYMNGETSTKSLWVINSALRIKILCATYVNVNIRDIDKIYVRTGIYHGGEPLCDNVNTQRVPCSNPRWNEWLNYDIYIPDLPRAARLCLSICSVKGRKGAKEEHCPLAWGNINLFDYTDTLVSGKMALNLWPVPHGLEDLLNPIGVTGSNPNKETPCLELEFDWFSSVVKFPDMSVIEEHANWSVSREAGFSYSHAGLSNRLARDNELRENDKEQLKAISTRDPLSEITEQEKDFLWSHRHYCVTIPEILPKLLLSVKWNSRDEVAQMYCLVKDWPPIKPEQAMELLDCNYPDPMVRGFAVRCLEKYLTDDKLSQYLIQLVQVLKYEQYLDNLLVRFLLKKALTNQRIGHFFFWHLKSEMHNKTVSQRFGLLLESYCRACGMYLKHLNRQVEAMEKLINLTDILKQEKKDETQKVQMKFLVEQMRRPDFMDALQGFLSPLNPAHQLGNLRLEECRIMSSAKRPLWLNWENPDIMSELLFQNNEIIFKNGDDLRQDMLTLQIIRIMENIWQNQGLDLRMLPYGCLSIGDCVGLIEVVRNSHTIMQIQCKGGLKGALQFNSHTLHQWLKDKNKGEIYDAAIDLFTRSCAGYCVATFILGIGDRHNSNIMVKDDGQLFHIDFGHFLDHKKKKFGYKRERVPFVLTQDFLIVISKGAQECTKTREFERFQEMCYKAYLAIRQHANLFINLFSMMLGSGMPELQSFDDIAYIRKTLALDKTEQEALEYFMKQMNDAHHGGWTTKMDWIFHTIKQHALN
Sequence of Phosphatidylinositol 3-kinase catalytic subunit type 3 (Q8NEB9 whole entry, canonical isoform): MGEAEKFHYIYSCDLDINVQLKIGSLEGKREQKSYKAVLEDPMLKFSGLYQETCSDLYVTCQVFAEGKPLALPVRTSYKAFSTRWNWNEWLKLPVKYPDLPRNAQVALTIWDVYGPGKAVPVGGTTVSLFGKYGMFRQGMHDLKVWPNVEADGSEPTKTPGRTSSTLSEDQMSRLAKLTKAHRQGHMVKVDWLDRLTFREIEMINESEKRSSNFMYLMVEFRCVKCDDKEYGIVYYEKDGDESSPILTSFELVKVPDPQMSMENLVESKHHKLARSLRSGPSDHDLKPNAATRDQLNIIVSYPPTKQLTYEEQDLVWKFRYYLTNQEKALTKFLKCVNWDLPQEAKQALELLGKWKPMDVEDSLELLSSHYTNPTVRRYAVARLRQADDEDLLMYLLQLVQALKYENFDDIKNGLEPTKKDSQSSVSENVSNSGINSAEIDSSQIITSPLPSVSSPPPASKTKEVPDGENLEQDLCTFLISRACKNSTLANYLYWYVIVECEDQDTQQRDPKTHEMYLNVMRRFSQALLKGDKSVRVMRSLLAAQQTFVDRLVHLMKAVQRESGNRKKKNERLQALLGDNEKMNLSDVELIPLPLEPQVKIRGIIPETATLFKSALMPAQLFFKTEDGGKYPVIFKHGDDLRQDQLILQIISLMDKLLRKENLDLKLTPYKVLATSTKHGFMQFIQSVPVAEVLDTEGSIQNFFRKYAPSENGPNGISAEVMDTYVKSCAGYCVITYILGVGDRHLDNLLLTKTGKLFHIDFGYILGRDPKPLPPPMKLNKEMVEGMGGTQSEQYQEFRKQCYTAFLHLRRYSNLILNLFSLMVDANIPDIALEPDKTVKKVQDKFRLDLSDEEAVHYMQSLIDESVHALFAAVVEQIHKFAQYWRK

| SMILES | solubility thermodynamic (physchem [1]) | Ki [2] | solubility thermodynamic (physchem [3]) | solubility thermodynamic (physchem [4]) | other results |
| --- | --- | --- | --- | --- | --- |
| Cc1nc(N)nc(-c2cccnc2Nc2cnc(Cl)c(NS(=O)(=O)C3CC3)c2)n1 | 3600 µg/mL (≈ 8320 µM) | 11 nM | 1000 µg/mL (≈ 2310 µM) | 1000 µg/mL (≈ 2310 µM) |  |
| Cc1nc(N)nc(-c2cccnc2Nc2cnc(Cl)c(NS(=O)(=O)N3CCOCC3)c2)n1 |  | 16 nM |  |  |  |
| Cc1nc(N)nc(-c2cc(Cl)cnc2Nc2cnc(Cl)c(NS(=O)(=O)N(C)C)c2)n1 | 11600 µg/mL (≈ 24700 µM) | 7.7 nM | 2000 µg/mL (≈ 4250 µM) | 1000 µg/mL (≈ 2130 µM) | Vd (in vivo [5]): 0.97 L/kg; inhibition (Mus musculus [6]): Dose-dependent effect; fraction unbound [7]: 0.002; microsomal CLint at 0.5 h, 1 µM (in vitro [8]): 27 µL/min/mg; bioavailability (in vivo [9]): 63%; Ki [10]: 0.6 nM; MRT (in vivo [11]): 2.5 h; fraction unbound [12]: 0.002; fraction unbound [13]: 0.0035; microsomal CLint at 0.5 h, 1 µM (in vitro [14]): 47 µL/min/mg; Ki [15]: 0.4 nM; IC50 [16]: 606 nM; Ki [17]: 1 nM; inhibition (INH) [18]: Not Active; Papp (human MDR1): 12.2 ×10⁻⁶ cm/s; AUC (in vivo [19]): 3360 ng·h/mL; clearance (in vivo [20]): 6.5 mL/min/kg; Papp (rodent MDR1): 12.2 ×10⁻⁶ cm/s; EC50 (Mus musculus [21]): 0.091 µg/mL (≈ 0.193 µM); fraction unbound [22]: 0.0287 |
| Cc1nc(N)nc(-c2cc(Cl)cnc2Nc2cnc(Cl)c(NS(=O)(=O)c3cccnc3)c2)n1 |  | 13 nM |  |  |  |
| Cc1nc(N)nc(-c2cccnc2Nc2cnc(Cl)c(NS(=O)(=O)N(C)C)c2)n1 | 1000 µg/mL (≈ 2290 µM) | 11 nM | 3600 µg/mL (≈ 8260 µM) | 4700 µg/mL (≈ 10800 µM) |  |
| Cc1nc(N)nc(-c2cccnc2Nc2cnc(Cl)c(NS(C)(=O)=O)c2)n1 | 46200 µg/mL (≈ 114000 µM) | 20 nM | 2900 µg/mL (≈ 7130 µM) | 5800 µg/mL (≈ 14300 µM) | microsomal CLint at 0.5 h, 1 µM (in vitro [8]): < 14 µL/min/mg; Ki [10]: 4.4 nM; microsomal CLint at 0.5 h, 1 µM (in vitro [14]): < 14 µL/min/mg; IC50 [23]: 198 nM; Ki [15]: 1.2 nM; MRT (Rattus norvegicus [24]): 4.5 h; IC50 [16]: 1290 nM; Ki [17]: 2.4 nM; Vdss (Rattus norvegicus [25]): 0.4 L/kg; CL (Rattus norvegicus [26]): 0.39 L/h/kg; F (Rattus norvegicus [27]): 33%; AUC (Rattus norvegicus [28]): 4238 ng·h/mL |
| Cc1nc(N)nc(-c2cc(CN3CCOCC3)cnc2Nc2cnc(Cl)c(NS(C)(=O)=O)c2)n1 | 8 µg/mL (≈ 15.8 µM) | 9.7 nM | 11 µg/mL (≈ 21.7 µM) | 200 µg/mL (≈ 395 µM) |  |
| Cc1nc(N)nc(-c2cc(Cl)cnc2Nc2cnc(C)c(NS(C)(=O)=O)c2)n1 |  | 161 nM |  |  |  |
| Cc1nc(N)nc(-c2cc(Cl)cnc2Nc2cnc(Cl)c(NS(C)(=O)=O)c2)n1 | 1000 µg/mL (≈ 2270 µM) | 3.5 nM | 1000 µg/mL (≈ 2270 µM) | 1000 µg/mL (≈ 2270 µM) |  |
| COc1cnc(Nc2cnc(Cl)c(NS(=O)(=O)N3CCOCC3)c2)c(-c2nc(C)nc(N)n2)c1 | 1 µg/mL (≈ 1.97 µM) | 13 nM | 14 µg/mL (≈ 27.6 µM) | 5 µg/mL (≈ 9.84 µM) |  |
| COc1cnc(Nc2cnc(Cl)c(NS(=O)(=O)N(C)C)c2)c(-c2nc(C)nc(N)n2)c1 | 1 µg/mL (≈ 2.15 µM) | 9.3 nM | 4 µg/mL (≈ 8.59 µM) | 3 µg/mL (≈ 6.44 µM) | Vd (in vivo [5]): 1.01 L/kg; microsomal CLint at 0.5 h, 1 µM (in vitro [8]): 20 µL/min/mg; bioavailability (in vivo [9]): 22%; Ki [10]: 4.7 nM; MRT (in vivo [11]): 2 h; microsomal CLint at 0.5 h, 1 µM (in vitro [14]): 26 µL/min/mg; IC50 [23]: 74 nM; Ki [15]: 1.1 nM; Ki [17]: 2.2 nM; AUC (in vivo [19]): 859 ng·h/mL; clearance (in vivo [20]): 8.67 mL/min/kg |
| Cc1nc(N)nc(-c2cc(CN3CCOCC3)cnc2Nc2cnc(Cl)c(NS(=O)(=O)N(C)C)c2)n1 | 16 µg/mL (≈ 29.9 µM) | 1.9 nM | 11 µg/mL (≈ 20.6 µM) | 200 µg/mL (≈ 374 µM) |  |

Continued, in another order:

| solubility thermodynamic (physchem [1]) | Ki [2] | solubility thermodynamic (physchem [3]) | solubility thermodynamic (physchem [4]) | SMILES | other results |
| --- | --- | --- | --- | --- | --- |
| 3200 µg/mL (≈ 6220 µM) | 29 nM | 1000 µg/mL (≈ 1940 µM) | 3200 µg/mL (≈ 6220 µM) | COCCN(C)S(=O)(=O)Nc1cc(Nc2ncc(Cl)cc2-c2nc(C)nc(N)n2)cnc1Cl |  |
|  | 114 nM |  |  | COc1ncc(Nc2ncc(Cl)cc2-c2nc(C)nc(N)n2)cc1NS(C)(=O)=O |  |
|  | 43 nM |  |  | Cc1nc(N)nc(-c2cccnc2Nc2cnc(Cl)c(NS(=O)(=O)N(C)C(C)C)c2)n1 |  |
|  | 311 nM |  |  | Cc1nc(N)nc(-c2cc(Cl)cnc2Nc2cnc(Cl)c(N(C)S(C)(=O)=O)c2)n1 |  |
| 46200 µg/mL (≈ 94900 µM) | 16 nM | 2900 µg/mL (≈ 5960 µM) | 5800 µg/mL (≈ 11900 µM) | Cc1nc(N)nc(-c2cccnc2Nc2cnc(Cl)c(NS(=O)(=O)c3ccc(F)cc3)c2)n1 |  |
| 11100 µg/mL (≈ 21700 µM) | 8.6 nM | 1000 µg/mL (≈ 1950 µM) | 1000 µg/mL (≈ 1950 µM) | Cc1nc(N)nc(-c2cc(Cl)cnc2Nc2cnc(Cl)c(NS(=O)(=O)N3CCOCC3)c2)n1 |  |
| 1 µg/mL (≈ 2.29 µM) | 11 nM | 1 µg/mL (≈ 2.29 µM) | 1 µg/mL (≈ 2.29 µM) | COc1cnc(Nc2cnc(Cl)c(NS(C)(=O)=O)c2)c(-c2nc(C)nc(N)n2)c1 | Vd (in vivo [5]): 0.28 L/kg; microsomal CLint at 0.5 h, 1 µM (in vitro [8]): < 14 µL/min/mg; MRT (in vivo [11]): 1.3 h; microsomal CLint at 0.5 h, 1 µM (in vitro [14]): < 14 µL/min/mg; CL (Rattus norvegicus [26]): 0.21 L/h/kg; F (Rattus norvegicus [27]): 1.8%; AUC (Rattus norvegicus [28]): 419 ng·h/mL |
|  | 360 nM |  |  | Cc1nc(N)nc(-c2cccnc2Nc2cnc(Cl)c(N)c2)n1 |  |
| 43 µg/mL (≈ 89.4 µM) | 18 nM | 34 µg/mL (≈ 70.7 µM) | 33 µg/mL (≈ 68.6 µM) | COCCOc1cnc(Nc2cnc(Cl)c(NS(C)(=O)=O)c2)c(-c2nc(C)nc(N)n2)c1 | Vd (in vivo [5]): 0.52 L/kg; microsomal CLint at 0.5 h, 1 µM (in vitro [8]): < 14 µL/min/mg; bioavailability (in vivo [9]): 28%; Ki [10]: 16 nM; MRT (in vivo [11]): 1.1 h; microsomal CLint at 0.5 h, 1 µM (in vitro [14]): < 14 µL/min/mg; IC50 [23]: 32 nM; Ki [15]: 6.1 nM; Ki [17]: 14 nM; AUC (in vivo [19]): 1210 ng·h/mL; clearance (in vivo [20]): 7.67 mL/min/kg |
